According to patent US10968222B2, “2-azabicyclo hexane JAK inhibitor compound” (THERAVANCE BIOPHARMA R&D IP, LLC, priority 2018, dated 2021):

Columns and labels:
[1] = system: IL-2 stimulated STAT5 phosphorylation in Tall-1 human T cell line; experiment: Inhibition of IL-2 stimulated pSTAT5 in Tall-1 T cells; format: cell-based; details: AlphaLisa, read-out: pIC50, inhibition of IL-2 stimulated pSTAT5 (converted)
Method: The potency of test compounds for inhibition of interleukin-2 (IL-2) stimulated STAT5 phosphorylation was measured in the Tall-1 human T cell line (DSMZ) using AlphaLisa. Because IL-2 signals through JAK1/3, this assay provides a measure of JAK1/3 cellular potency.
Phosphorylated STAT5 was measured via the AlphaLISA SureFire Ultra pSTAT5 (Tyr694/699) kit (PerkinElmer). Human T cells from the Tall-1 cell line were cultured in a 37° C., 5% CO2 humidified incubator in RPMI (Life Technologies) supplemented with 15% Heat Inactivated Fetal Bovine Serum (FBS, Life Technologies), 2 mM Glutamax (Life Technologies), 25 mM HEPES (Life Technologies) and 1× Pen/Strep (Life Technologies). Compounds were serially diluted in DMSO and dispensed acoustically to empty wells. […] Phosphorylated STAT5 was measured via the pSTAT5 AlphaLisa kit (PerkinElmer). […] Luminescence was measured with excitation at 689 nm and emission at 570 nm using an EnVision plate r reader (PerkinElmer) under green filtered <100 lux light.
To determine the inhibitory potency of test compounds in response to IL-2, the average emission intensity of beads bound to pSTAT5 was measured in a human T cell line. IC50 values were determined from analysis of the inhibition curves of signal intensity versus compound concentration. Data are expressed as pIC50 (negative decadic logarithm IC50) values (mean±standard deviation).

CDK2 = biological target: T1, CDK2 (Homo sapiens, UniProt P24941); experiment: Kinome screen, CDK2; format: binding; details: screened at 1 μM
T1 construct: made in house; host or cells: E. coli BL21-derived host (T7 phage) or HEK-293 cells
Method: (§1) Compounds 1 and C-1 were screened against other kinases to evaluate their selectivity profile.
(§2) Kinase-tagged T7 phage strains were grown in parallel in 24-well blocks in an E. coli host derived from the BL21 strain. E. coli were grown to log-phase and infected with T7 phage from a frozen stock (multiplicity of infection=0.4) and incubated with shaking at 32° C. until lysis (90-150 minutes). The lysates were centrifuged (6,000×g) and filtered (0.2 μm) to remove cell debris. The remaining kinases were produced in HEK-293 cells and subsequently tagged with DNA for qPCR detection.
(§3) Streptavidin-coated magnetic beads were treated with biotinylated small molecule ligands for 30 minutes at room temperature to generate affinity resins for kinase assays. The liganded beads were blocked with excess biotin and washed with blocking buffer (SeaBlock (Pierce), 1% BSA, 0.05% Tween 20, 1 mM DTT) to remove unbound ligand and to reduce non-specific phage binding. Binding reactions were assembled by combining kinases, liganded affinity beads, and test compounds in 1× binding buffer (20% SeaBlock, 0.17×PBS, 0.05% Tween 20, 6 mM DTT). Test compounds were prepared as 40× stocks in 100% DMSO and directly diluted into the assay. All reactions were performed in polypropylene 384-well plates in a final volume of 0.04 ml. […] The kinase concentration in the eluates was measured by qPCR. […]

JAK1 = biological target: T2, JAK1 (Homo sapiens, UniProt P23458); experiment: Biochemical JAK kinase assay (LanthaScreen), JAK1; details: converted from pIC50 by Cheng-Prusoff; 25 μM ATP; read-out: JAK 1 pKi (converted)
T2 construct: GST; purchased Life Technologies
T2 sequence (P23458 whole entry): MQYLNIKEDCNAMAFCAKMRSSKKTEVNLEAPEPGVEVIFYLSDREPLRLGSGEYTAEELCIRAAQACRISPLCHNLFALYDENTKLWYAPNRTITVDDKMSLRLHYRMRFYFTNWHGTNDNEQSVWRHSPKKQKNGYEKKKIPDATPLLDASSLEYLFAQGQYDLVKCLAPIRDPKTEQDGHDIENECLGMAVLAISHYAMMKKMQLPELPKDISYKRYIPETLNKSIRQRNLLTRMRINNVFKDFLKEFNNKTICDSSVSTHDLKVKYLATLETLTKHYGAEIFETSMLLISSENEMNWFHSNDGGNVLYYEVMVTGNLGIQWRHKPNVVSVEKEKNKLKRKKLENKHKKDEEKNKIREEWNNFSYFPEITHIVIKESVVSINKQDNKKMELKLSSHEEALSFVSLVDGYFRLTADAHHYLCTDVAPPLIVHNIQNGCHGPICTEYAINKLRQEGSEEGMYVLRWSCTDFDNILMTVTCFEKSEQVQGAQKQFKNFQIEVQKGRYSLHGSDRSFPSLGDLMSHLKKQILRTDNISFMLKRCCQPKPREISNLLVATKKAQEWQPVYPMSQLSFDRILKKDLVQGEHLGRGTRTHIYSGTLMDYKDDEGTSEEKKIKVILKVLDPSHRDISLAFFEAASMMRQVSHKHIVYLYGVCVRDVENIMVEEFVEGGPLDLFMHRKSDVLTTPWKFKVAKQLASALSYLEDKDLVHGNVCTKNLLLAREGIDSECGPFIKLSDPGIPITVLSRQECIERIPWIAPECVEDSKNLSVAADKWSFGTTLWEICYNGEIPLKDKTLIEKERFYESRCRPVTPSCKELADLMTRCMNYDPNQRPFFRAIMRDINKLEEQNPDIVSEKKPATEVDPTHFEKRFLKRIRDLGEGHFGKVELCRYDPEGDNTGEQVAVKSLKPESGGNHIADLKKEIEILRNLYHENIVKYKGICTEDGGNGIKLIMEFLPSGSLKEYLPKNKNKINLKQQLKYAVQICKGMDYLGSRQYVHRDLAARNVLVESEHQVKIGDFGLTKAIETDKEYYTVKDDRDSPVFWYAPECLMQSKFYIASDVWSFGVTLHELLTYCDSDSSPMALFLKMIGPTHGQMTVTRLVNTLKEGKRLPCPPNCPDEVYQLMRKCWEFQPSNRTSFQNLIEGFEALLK
Method: A panel of four LanthaScreen JAK biochemical assays (JAK1, 2, 3 and Tyk2) were carried in a common kinase reaction buffer (50 mM HEPES, pH 7.5, 0.01% Brij-35, 10 mM MgCl2, and 1 mM EGTA). Recombinant GST-tagged JAK enzymes and a GFP-tagged STAT1 peptide substrate were obtained from Life Technologies.
Serially diluted compound was pre-incubated with each of the four JAK enzymes and the substrate in white 384-well microplates (Corning) at ambient temperature for 1 h. ATP was subsequently added to initiate the kinase reactions in 10 μL total volume, with 1% DMSO. […] The plates were allowed to incubate at ambient temperature for 1 h before being read on the EnVision reader (Perkin Elmer). Emission ratio signals (520 nm/495 nm) were recorded and utilized to calculate the percent inhibition values based on DMSO and background controls.
For dose-response analysis, percent inhibition data were plotted vs. compound concentrations, and IC50 values were determined from a 4-parameter robust fit model with the Prism software (GraphPad Software). Results were expressed as pIC50 (negative logarithm of IC50) and subsequently converted to pKi (negative logarithm of dissociation constant, Ki) using the Cheng-Prusoff equation.

VEGFR2 = biological target: T3, VEGFR2 (Homo sapiens, UniProt P35968); experiment: Kinome screen, VEGFR2; format: binding; details: screened at 1 μM
T3 construct: made in house; host or cells: E. coli BL21-derived host (T7 phage) or HEK-293 cells
T3 sequence (P35968 20-1356): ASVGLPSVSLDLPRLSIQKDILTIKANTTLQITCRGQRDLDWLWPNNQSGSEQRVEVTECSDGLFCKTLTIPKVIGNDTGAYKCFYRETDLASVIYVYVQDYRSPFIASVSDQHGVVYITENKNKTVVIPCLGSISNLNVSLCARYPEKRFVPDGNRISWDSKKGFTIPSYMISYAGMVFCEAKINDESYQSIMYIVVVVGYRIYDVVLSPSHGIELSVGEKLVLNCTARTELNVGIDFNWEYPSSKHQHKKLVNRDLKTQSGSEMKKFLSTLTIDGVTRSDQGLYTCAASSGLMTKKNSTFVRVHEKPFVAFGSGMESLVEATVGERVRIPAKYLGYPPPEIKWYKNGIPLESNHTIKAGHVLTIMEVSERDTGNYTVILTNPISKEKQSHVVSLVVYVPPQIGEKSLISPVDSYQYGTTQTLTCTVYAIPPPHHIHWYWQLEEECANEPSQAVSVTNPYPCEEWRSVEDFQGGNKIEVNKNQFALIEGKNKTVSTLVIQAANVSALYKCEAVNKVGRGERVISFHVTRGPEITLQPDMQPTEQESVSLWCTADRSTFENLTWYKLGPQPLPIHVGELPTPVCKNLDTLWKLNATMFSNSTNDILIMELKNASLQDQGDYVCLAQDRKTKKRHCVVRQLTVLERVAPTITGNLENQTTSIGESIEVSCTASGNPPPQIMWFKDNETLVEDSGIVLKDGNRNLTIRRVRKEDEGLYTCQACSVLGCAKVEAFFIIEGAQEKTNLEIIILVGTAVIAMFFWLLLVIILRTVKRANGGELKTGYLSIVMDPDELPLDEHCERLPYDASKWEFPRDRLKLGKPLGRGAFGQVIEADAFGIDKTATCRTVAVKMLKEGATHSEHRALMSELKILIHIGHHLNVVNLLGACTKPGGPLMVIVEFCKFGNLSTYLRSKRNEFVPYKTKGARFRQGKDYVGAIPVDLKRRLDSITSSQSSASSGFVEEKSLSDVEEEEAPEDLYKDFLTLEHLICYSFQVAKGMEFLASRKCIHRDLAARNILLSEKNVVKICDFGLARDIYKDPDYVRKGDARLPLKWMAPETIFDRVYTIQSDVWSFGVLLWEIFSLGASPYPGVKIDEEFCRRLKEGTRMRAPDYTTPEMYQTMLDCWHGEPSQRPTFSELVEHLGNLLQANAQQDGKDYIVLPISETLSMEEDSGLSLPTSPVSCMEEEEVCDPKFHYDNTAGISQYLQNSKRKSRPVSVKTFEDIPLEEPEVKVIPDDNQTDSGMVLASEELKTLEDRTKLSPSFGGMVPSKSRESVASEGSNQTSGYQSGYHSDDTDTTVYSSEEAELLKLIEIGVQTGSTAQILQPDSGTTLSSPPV
Method: as §1, §2, §3

`CCc1cc(O)c(F)cc1-c1cc(F)c2c(-c3nc4c([nH]3)CCN(C(=O)[C@]35C[C@H]3CCN5)C4)n[nH]c2c1` [Compound 1, (1S,5R)-2-azabicyclo[3.1.0]hexan-1-yl(2-(6-(2-ethyl-5-fluoro-4-hydroxyphenyl)-4-fluoro-1H-indazol-3-yl)-6,7-dihydro-3H-imidazo[4,5-c]pyridin-5(4H)-yl)methanone] showed an IC50 [1] of 15.8 nM, an inhibition at 1 µM (CDK2) of 1% and a Ki (JAK1) of 0.126 nM. The inhibition at 1 µM (VEGFR2) was 47%.
